Series [1] relates to female hooded-Lister rats. The series is described as follows: Elevated plus maze, Study 1. The format is in vivo, rat. The text has this: (§1) The elevated plus maze has been widely used as a test for anxiety, as it avoids confounding effects on consummatory responses or sensitivity to shock and it has a certain level of ethological relevance (see Rodgers R J, Cole J C (1994) The elevated plus maze. Pharmacological methods and ethology. In: Cooper, S J, Hendrie C A (eds) Ethology and Psychopharmacology. J. Wiley & Sons Ltd, pp 9-941994).
(§2) The maze consists of opposite pairs of open and closed arms, and the proportion of exploration carried out on the open arms is taken to be a measure of anxiety. Thus the percentage of open arm entries is increased by known anxiolytic agents and reduced by anxiogenic compounds (Pellow, S, Chopin P, File S E, Briley, M (1985) Validation of open: closed arm entries in an elevated plus maze as a measure of anxiety in the rat. J. Neurosci. Meth. 14: 149-167). In addition, the plus maze may be used to examine the behavioural response to stress, as exposure induces the release of corticosterone File, S E, Pellow, S (1987) Behavioural pharmacology of minor tranquillisers. J. Pharmacol. Exp. Ther. 35: 265-290). The elevated plus maze is based on an approach conflict model and has been validated as a model of anxiety in the rat (Tomkins D M (1990) The behavioural effects of anxiogenic agents in rodents. PhD thesis. Postgraduate studies in Pharmacology. University of Bradford).
(§3) Two studies were carried out using the elevated plus maze method and the aim of the studies was to assess the ability of a Isomer A for its ability to produce an anxiolytic effect in female hooded-Lister rats.
(§4) A total of 90 female hooded-Lister rats were used as subjects for study 1. Female hooded-Lister rats (Harlan, UK) were obtained as adults and weighed approximately 200-220 g at the start of the study. Subjects were housed in routinely used home cages in groups of 5 per cage. Home cages measured 59×35×24 cm. Rats were maintained under standard laboratory conditions on a 12:12 hour light/dark cycle (lights on at 08:00 h). Experimental procedures were performed in the light phase. Laboratory rooms were temperature controlled at 21±2° C. and humidity remained at 40-50% throughout the study. Rats were tested in the naïve state i.e. they had no exposure to the plus maze prior to testing, although they were handled and received sham injections prior to testing.
Isomer A (1.0-30.0 mg/kg) and chlordiazepoxide (1.0-5.0 mg/kg) were tested. Isomer A was dissolved in water and administered via the oral route 30 minutes prior to testing. Chlordiazepoxide (CDP) was dissolved in saline and administered via the intraperitoneal route 30 min prior to testing.
(§5) The maze consisted of a +shaped maze, made of Perspex, with two open arms (30×5 cm) and two closed arms (30×5 cm). The maze was arranged so that like arms are opposing. The closed arms were surrounded by matt black walls on all sides (10 cm in height). The maze was elevated to a height of 50 cm, and the surface was covered with a removable rubber matting. The behaviour of drug or vehicle-treated rats was monitored by means of a video camera attached to a TV monitor and video recorder. The rat was placed in the centre square and behaviour monitored over a 10 min test period. […] The maze was cleaned between tests and rats were placed on the maze in a randomised manner in order to minimise the effects of familiar cage mate odours.
(§6) Behaviour was recorded and the following parameters were analysed from the video tapes using the Hindsight® program for ethological analysis of behaviour: time spent on, and entries into, the open and closed arms, time spent in the centre square and rearing on the open and closed arms.
(§7) Elevated plus maze data were analysed by a one way ANOVA, followed by Dunnett's t test to assess drug effects on number of entries into the open and closed arms, length of time spent, and number of rears in, open and closed arms, and time spent in the centre square compared with vehicle.

The subject of series [2] is female hooded-Lister rats. The series is described as follows: Elevated plus maze, Study 2. The format is in vivo, rat.
Text: as §1, §2, §3
as §4, with “60” for “90”, “B.” for “1.”, “(Charles River,” for “(Harlan,”, “220-250” for “200-220”
Isomer A (0.1-2.5 mg/kg) and chlordiazepoxide (2.5 mg/kg) were tested. Isomer A was dissolved in water and administered via the oral route (p.o.) 30 minutes prior to testing. Chlordiazepoxide (CDP) was dissolved in saline and administered via the intraperitoneal route (i.p.) 30 min prior to testing.
as §5, §6, §7

[3] abbreviates: CDP 1.0-5.0 mg/kg i.p., 10 min trial, ANOVA.
Setting [4] is: Isomer A 1.0-10 mg/kg p.o., 10 min trial, ANOVA.
[5] abbreviates: Isomer A 1.0-10 mg/kg p.o., 10 minute trial, ANOVA.
The mark [6] stands for this setting: Isomer A 1.0-10 mg/kg p.o., 10 minute trial, overall ANOVA.
[7] abbreviates: CDP 2.5 mg/kg i.p. and Isomer A 0.1-2.5 mg/kg p.o., 10 min trial, overall ANOVA.

Each structure is given as a SMILES string.

In the case of `CNC1=Nc2ccc(Cl)cc2C(c2ccccc2)=[N+]([O-])C1` [CDP, chlordiazepoxide, reference compound], in series [1] (setting [3]), the number of rears entry was “no significant effect” and the “time spent on the closed arms” value is “no significant effect”. Also, the “total closed arm entries” value in series [1] (CDP 1.0-5.0 mg/kg i.p., 10 minute trial, ANOVA) is “no significant effect”.
Consider `COc1cc2c(cc1OC)[C@@H]1C[C@@H](O)[C@H](CC(C)C)CN1CC2` (single isomer, unassigned) [Isomer A], for which the “total open arm entries” value in series [1] (Isomer A 1 mg/kg p.o., 10 minute trial) is “trend towards an increase”; in series [1] (setting [6]), “significant effect”; in series [2] (setting [7]), “no overall significant effect”. The “magnitude of the increase in time spent on the open arms relative to CDP at 2.5 mg/kg” value in series [1] (Isomer A 1 mg/kg p.o., Study 1) is given as “comparable”; in series [2] (Isomer A 0.1-2.5 mg/kg p.o., Study 2) it was “comparable”. Also, the “time spent on the open arms” value in series [1] (Isomer A 1 mg/kg p.o., post-hoc vs vehicle (p<0.05)) was “significant increase”; in series [1] (setting [6]) it was “overall significant effect”; in series [2] (setting [7]), “overall significant effect”; in series [2] (Isomer A, all doses 0.1-2.5 mg/kg p.o., post-hoc vs vehicle (p<0.05-p<0.001)), “significant increase”. Also, in series [1] (Isomer A 30 mg/kg p.o., animals remained stationary for much of the 10 minute test, behaviour not scored), the “overall activity levels on the elevated plus maze” value was “markedly reduced”. Besides, the “time spent in the centre square” value is “no significant effect” in series [1] (setting [4]) and “no overall significant effect” in series [2] (setting [7]). Further, the “time spent on the closed arms” value in series [1] (setting [4]) is “no significant effect”; in series [1] (Isomer A, most marked at 1.0 mg/kg p.o., failed to reach statistical significance), “trend towards a reduction”; in series [2] (setting [7]), “overall significant effect”; in series [2] (Isomer A 1.0 mg/kg p.o., post-hoc vs vehicle (p<0.05)), “significant reduction”. Further, the values for the number of rears result in series [1] (setting [5]) and in series [2] (setting [7]) were “no significant effect” and “no overall significant effect”, respectively. Besides, the “total closed arm entries” value is listed as “no significant effect” in series [1] (setting [5]) and “no overall significant effect” in series [2] (setting [7]). Moreover, the “anxiolytic effect on the elevated plus maze” value in series [1] (Isomer A, Study 1, some measures of behaviour) was “some anxiolytic potential”; in series [2] (Isomer A, all doses tested 0.1-2.5 mg/kg p.o., Study 2, certain measures of behaviour) it was “anxiolytic potential”. Besides, in series [2] (Isomer A 0.1 mg/kg p.o., effect failed to achieve statistical significance), the “time in the centre square” value is given as “reduced”.

These data come from patent US20110190333A1, “DIHYDROTETRABENANZINE FOR THE TREATMENT OF ANXIETY” (Biovail Laboratories International (Barbados) S.R.L., priority 2008, published 2011).
